Laboratory results as given in ChEMBL document CHEMBL4834428 (J Med Chem, 2021).

What was measured:
[1] = target: T1, NAD-dependent protein deacetylase sirtuin-2 (Homo sapiens, UniProt Q8IXJ6); test: Inhibition of His6-tagged/TEV fused SIRT2 (unknown origin) expressed in Escherichia coli BL21 (DE3) preincubated for 15 mins followed by NAD+ addition and measured after 30 mins by FLucK529Ac based luminescence assay
T1 sequence (Q8IXJ6 whole entry): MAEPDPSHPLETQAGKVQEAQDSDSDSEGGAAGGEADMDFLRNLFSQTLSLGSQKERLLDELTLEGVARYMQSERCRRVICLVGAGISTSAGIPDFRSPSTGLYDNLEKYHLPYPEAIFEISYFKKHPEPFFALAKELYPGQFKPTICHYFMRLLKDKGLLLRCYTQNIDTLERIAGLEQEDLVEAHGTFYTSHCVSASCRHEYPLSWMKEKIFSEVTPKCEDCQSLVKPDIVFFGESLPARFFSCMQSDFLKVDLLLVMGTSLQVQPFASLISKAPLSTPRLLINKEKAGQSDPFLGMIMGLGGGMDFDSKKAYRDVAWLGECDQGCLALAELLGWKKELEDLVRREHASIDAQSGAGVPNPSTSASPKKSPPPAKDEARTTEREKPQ

[2] = target: T2, NAD-dependent protein deacetylase sirtuin-3, mitochondrial (Homo sapiens, UniProt Q9NTG7); test: Inhibition of His6-tagged/TEV fused SIRT3 (unknown origin) expressed in Escherichia coli BL21 (DE3) preincubated for 15 mins followed by NAD+ addition and measured after 30 mins by FLucK529Ac based luminescence assay
T2 sequence (Q9NTG7 whole entry): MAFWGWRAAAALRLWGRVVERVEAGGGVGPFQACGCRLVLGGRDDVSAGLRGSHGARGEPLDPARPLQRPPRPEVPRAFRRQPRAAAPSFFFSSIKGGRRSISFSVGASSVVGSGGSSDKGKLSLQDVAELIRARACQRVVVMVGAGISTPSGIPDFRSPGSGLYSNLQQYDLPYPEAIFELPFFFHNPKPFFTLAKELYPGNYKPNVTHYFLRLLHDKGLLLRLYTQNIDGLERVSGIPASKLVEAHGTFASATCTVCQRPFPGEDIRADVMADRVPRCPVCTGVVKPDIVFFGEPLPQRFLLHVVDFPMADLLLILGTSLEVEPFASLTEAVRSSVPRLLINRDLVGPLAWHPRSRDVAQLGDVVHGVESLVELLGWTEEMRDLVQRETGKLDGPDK

[3] = target: T3, NAD-dependent protein deacetylase sirtuin-1 (Homo sapiens, UniProt Q96EB6)
T3 sequence (Q96EB6 whole entry): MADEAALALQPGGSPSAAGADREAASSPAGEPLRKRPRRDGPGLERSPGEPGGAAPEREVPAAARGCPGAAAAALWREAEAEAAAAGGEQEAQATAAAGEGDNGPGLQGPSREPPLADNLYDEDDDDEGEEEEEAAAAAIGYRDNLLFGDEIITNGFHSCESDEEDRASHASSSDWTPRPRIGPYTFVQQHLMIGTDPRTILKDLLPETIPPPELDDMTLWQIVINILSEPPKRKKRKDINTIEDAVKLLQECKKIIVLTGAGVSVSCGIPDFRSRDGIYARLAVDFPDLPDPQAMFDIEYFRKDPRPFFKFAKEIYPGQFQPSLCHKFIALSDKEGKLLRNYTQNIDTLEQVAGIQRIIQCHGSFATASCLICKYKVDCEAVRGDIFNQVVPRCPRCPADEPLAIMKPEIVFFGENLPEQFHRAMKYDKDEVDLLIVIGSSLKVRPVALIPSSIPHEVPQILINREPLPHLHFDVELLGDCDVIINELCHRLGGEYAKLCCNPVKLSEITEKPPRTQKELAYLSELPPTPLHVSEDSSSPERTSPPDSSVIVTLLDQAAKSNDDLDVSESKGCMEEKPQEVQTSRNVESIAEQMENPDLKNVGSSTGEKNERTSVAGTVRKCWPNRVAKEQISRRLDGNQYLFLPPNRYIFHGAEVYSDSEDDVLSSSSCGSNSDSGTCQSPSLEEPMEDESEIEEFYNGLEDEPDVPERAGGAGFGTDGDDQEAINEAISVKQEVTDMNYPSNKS
Description: Inhibition of His6-tagged SIRT1 (unknown origin) expressed in Escherichia coli BL21 (DE3) preincubated for 15 mins followed by NAD+ addition and measured after 30 mins by FLucK529Ac based luminescence assay

[4] = target: T3, NAD-dependent protein deacetylase sirtuin-1; remark: listed apart in the source
Description: Uncompetitive inhibition of His6-tagged SIRT1 (unknown origin) expressed in Escherichia coli BL21 (DE3) assessed as inhibition constant measured every 2 mins for 30 mins in presence of NAD+ and ATP by FLucK549Ac based Michaelis-Menten analysis

| Compound | IC50 [1] [µM] | IC50 [2] [µM] | IC50 [3] [µM] | Ki [4] [µM] |
| --- | --- | --- | --- | --- |
| CS(=O)(=O)N1CC(C(N)=O)Oc2ccccc21 (stereo unspecified) | > 60 | > 60 | > 60 | – |
| CN1CC(C(N)=O)Oc2ccccc21 (stereo unspecified) | > 60 | > 60 | > 60 | – |
| NC(=O)C1CN(C(=O)c2ccc(CCl)cc2)c2ccccc2O1 (stereo unspecified) | > 60 | > 60 | 48.8 | – |
| CC(=O)N1CC(C(N)=O)Oc2ccccc21 (stereo unspecified) | > 60 | > 60 | > 60 | – |
| O=C(O)C1CN(Cc2ccccc2)c2ccccc2O1 (stereo unspecified) | > 60 | > 60 | > 60 | – |
| NC(=O)C1CN(Cc2ccccc2C(=O)O)c2ccccc2O1 (stereo unspecified) | > 60 | > 60 | 13.9 | – |
| CCOC(=O)C1CN(Cc2ccccc2)c2ccccc2O1 (stereo unspecified) | > 60 | > 60 | > 60 | – |
| CNC(=O)C1CN(Cc2ccccc2)c2ccccc2O1 (stereo unspecified) | > 60 | > 60 | > 60 | – |
| NC(=O)C1CN(Cc2ccccc2)c2ccccc2O1 (stereo unspecified) | > 60 | > 60 | 8.54 | – |
| NC(=O)C1CN(Cc2ccc(-c3ccccc3)cc2)c2ccccc2O1 (stereo unspecified) | > 60 | > 60 | > 60 | – |
| Cc1ccc(S(=O)(=O)N2CC(C(N)=O)Oc3ccccc32)cc1 (stereo unspecified) | > 60 | > 60 | > 60 | – |
| CC(C)(C)OC(=O)CN1CC(C(N)=O)Oc2ccccc21 (stereo unspecified) | > 60 | > 60 | > 60 | – |
| NC(=O)C1CN(C(=O)c2cccnc2)c2ccccc2O1 (stereo unspecified) | > 60 | > 60 | > 60 | – |
| COc1cccc(CN2CC(C(N)=O)Oc3ccccc32)c1 (stereo unspecified) | 15.4 | > 60 | 2.13 | – |
| NC(=O)C1CN(C(=O)c2ccccc2)c2ccccc2O1 (stereo unspecified) | > 60 | > 60 | > 60 | – |
| NC(=O)C1CN(S(=O)(=O)c2cccc3ccccc23)c2ccccc2O1 (stereo unspecified) | > 60 | > 60 | > 60 | – |
| NC(=O)C1CN(Cc2ccc([N+](=O)[O-])cc2)c2ccccc2O1 (stereo unspecified) | 34.7 | > 60 | 1.06 | – |
| NC(=O)C1CN(Cc2cc(C(F)(F)F)cc(C(F)(F)F)c2)c2ccccc2O1 (stereo unspecified) | 0.52 | > 60 | 6.04 | – |
| Cc1cccc(C)c1CN1CC(C(N)=O)Oc2ccccc21 (stereo unspecified) | > 60 | > 60 | 37.4 | – |
| COC(=O)c1ccccc1CN1CC(C(N)=O)Oc2ccccc21 (stereo unspecified) | > 60 | > 60 | 0.49 | – |
| O=C(C1CN(Cc2ccccc2)c2ccccc2O1)N1CCCCC1 (stereo unspecified) | > 60 | > 60 | > 60 | – |
| CN(C)C(=O)C1CN(Cc2ccccc2)c2ccccc2O1 (stereo unspecified) | > 60 | > 60 | > 60 | – |
| COc1ccc(NC(=O)N2CC(C(N)=O)Oc3ccccc32)cc1 (stereo unspecified) | > 60 | > 60 | > 60 | – |
| N#Cc1cccc(NC(=O)N2CC(C(N)=O)Oc3ccccc32)c1 (stereo unspecified) | > 60 | > 60 | > 60 | – |
| CC(C)CC(=O)N1CC(C(N)=O)Oc2ccccc21 (stereo unspecified) | > 60 | > 60 | > 60 | – |
| NC(=O)C1CN(Cc2cccc(Br)c2)c2ccccc2O1 (stereo unspecified) | 1.76 | > 60 | 1.27 | – |
| Cc1ccc(NC(=O)N2CC(C(N)=O)Oc3ccccc32)cc1 (stereo unspecified) | > 60 | > 60 | > 60 | – |
| N#Cc1ccccc1CN1CC(C(N)=O)Oc2ccccc21 (stereo in doubt; 4.27) | 37.7 | > 60 | 0.22 | 0.4 |
| N#Cc1ccccc1CN1CC(C(N)=O)Oc2ccccc21 (stereo in doubt; form 1) | 47.3 | > 60 | 47.3 | – |
| N#Cc1ccccc1CN1CC(C(N)=O)Oc2ccccc21 (stereo in doubt; form 2) | 34 | > 60 | 0.11 | – |
